“Also recorded” adds a separate entry of the source.

The nature of test [1]: Long-term near-UV photo-production of H2O2 with catalase cycles. Type of test: biochemical. The method, then:
FIG. 8A illustrates the production of H2O2 by immunoglobulins and non-immunoglobulin proteins. Assays were performed by near-UV irradiation (312 nm, 800 μW cm^−2) of individual antibody/protein samples (100 μL, 6.7 μM) in phosphate-buffered saline (PBS) [10 mM sodium phosphate, 150 mM NaCl (pH 7.4)] in a sealed glass vial on a transilluminator (Fischer Biotech) under ambient aerobic conditions at 20EC. Aliquots (10 μL) were removed at timed intervals throughout the assay. H2O2 concentration was determined by the amplex red method. […]
FIG. 8B illustrates the long-term production of H2O2 by sheep poly-IgG (6.7 μM, 200 μL). […] H2O2 concentration was measured as described in FIG. 8A. […]
FIG. 8E illustrates the long-term inhibition of antibody photo-production of H2O2 by H2O2 and complete re-establishment of activity after removal of H2O2. […] H2O2 fo rmation throughout the assay was measured by the amplex red assay. […]
FIG. 11B provides the effect of chloride ion on antibody-mediated photo-production of H2O2. […] Aliquots (10 μL) were removed throughout the assay and the H2O2 concentration determined by the amplex red assay. […]

A short description of test [2]: Hydrogen peroxide production by UV-irradiated antibody/protein (Amplex Red assay). Type of test: biochemical. The conditions noted are these: UV irradiation in PBS. As for the experimental part: Antibody/Protein Irradiation. Unless otherwise stated, the assay solution (100 μl, 6.7 μM protein in PBS, pH 7.4) was added to a glass vial, sealed with a screw-cap, and irradiated with either UV (312 nm, […] Fischer-Biotech transilluminator) or visible light.
Quantitative Assay for Hydrogen Peroxide. An aliquot (20 μl) from the protein solution was removed and added into a well of a 96-well microtiter plate (Costar) containing reaction buffer (80 μl). Working solution (100 μl/400 μM Amplex Red reagent ½ units/ml horseradish peroxidase) was then added, and the plate was incubated in the dark for 30 min. The fluorescence of the well components was then measured using a CytoFluor Multiwell Plate Reader (Series 4000, PerSeptive Biosystems, Framingham, Mass.; Ex/Em: 530/580 nm). The hydrogen peroxide concentration was determined using a standard curve. All experiments were run in duplicate, and the rate is quoted as the mean of at least two measurements.
Denaturation. IgG 19G12 (100 μl, 6.7 μM) was heated to 100EC in an Eppendorf tube for 2 min. The resultant solution was transferred to a glass, screw-cap vial and irradiated with UV light for 30 min. The concentration of H2O2 was determined after 30 min.

The next test relates to E. coli. As to the kind of experiment: Bactericidal assay, E. coli (strain not singled out). Type of test: cell-based. The conditions noted are these: for bactericidal activity (in words): HPIX 40 μM, white light 1 h, 4° C. The method, then:
In a typical experiment, a culture of E. coli (in log phase growth, OD600=0.2-0.3) was repeatedly pelleted (3×3,500 rpm) and resuspended in PBS (pH 7.4). The PBS suspended cells were then added to glass vials and cooled to 4° C. Hematoporphyrin IX (40 μM) and antibody (20 μM) were added and the vials were either placed on a light box (visible light, 2.8 mW cm^−2) or in the dark at 4° C. and incubated for 1 h. Viability was determined by recovery of colony forming units (CFUs) on agar plates. Each experiment was performed at least in duplicate.
In a typical experiment, a culture of E. coli (in log phase growth, OD600=0.2-0.3) was repeatedly washed in PBS by pelleting (3×3,500 rpm) the cells and resuspending them in PBS (pH 7.4). The PBS suspended cells were then added to glass vials and cooled to 4° C. Hematoporphyrin IX (40 μM) and antibody (20 μM) were added and the vials were either placed on a light box (visible light, 2.8 mW cm^−2) or in the dark at 4° C. and incubated for 1 h. Viability was determined by recovery of colony forming units (CFUs) on agar plates. Each experiment was performed at least in duplicate.

In another test the test system is human neutrophils (PMNs). The test is described as follows: Oxidation of indigo carmine 1 by activated human neutrophils. The note with it: indigo carmine 30 μM, PMNs 1.5×10^7 cell/mL, phorbol myristate 1 μg/mL, 37° C. Type of test: cell-based. As for the experimental part: FIG. 20A illustrates the time course of oxidation of indigo carmine 1 (30 μM) (Δ) and formation of 2 (▪) by human neutrophils (PMNs, 1.5×10^7 cell/mL) activated with phorbol myristate (1 μg/mL) in PBS (pH 7.4) at 37° C. No oxidation of indigo carmine 1 occurs with PMNs that are not activated (data not shown). Neutrophils were prepared as previously described. Hypochlorous acid (HOCl) is an oxidant known to be produced by neutrophils.
Human neutrophils were prepared as described by M. Markert, P. C. Andrews, and B. M. Babior Methods Enzymol. 105, 358 (1984). Following activation with phorbol myristate (1 μg/mL), the neutrophils (1.5×10^7 cells/mL) produced an oxidant species that oxidatively cleaves indigo carmine 1 to isatin sulfonic acid 2 (FIG. 19 and FIG. 20B). Hypochlorous acid (HOCI) is an oxidant that is known to be produced by neutrophils.

Consider “β-galactosidase: enzyme from Sigma; most efficient non-immunoglobulin protein at H2O2 photo-production”, for which the “H2O2 generated by photo-production” value in test [1] (near-UV, from its 39 Trp residues) is listed as 5.9 mol eq.

For the molecule “superoxide dismutase: enzyme obtained from Sigma”, in test [2], the “ability to reduce ^1O2 / generate H2O2 (in words)” value was “the same as irradiation of PBS alone; also recorded: do not reduce ^1O2”.

As for “bovine serum albumin: bovine serum albumin”, in the test on E. coli, the “bactericidal activity (in words)” value is “no bacterial killing”.

As to `N[C@@H](Cc1c[nH]c2ccccc12)C(=O)O` [tryptophan], the “production of H2O2 during near-UV irradiation” value in test [1] (tryptophan 20 μM) is given as “ca. 0.5 mole equivalents”.

Regarding catalase, the “protection against the bactericidal activity of non-specific antibodies” value in the test on E. coli (catalase 13 mU/mL) is “complete protection; also recorded: completely attenuated the bactericidal activity”.

In the case of `CC1=C(CCC(=O)O)c2cc3[nH]c(cc4nc(cc5[nH]c(cc1n2)c(C)c5C(C)O)C(C)=C4C(C)O)c(C)c3CCC(=O)O` (stereo not drawn) [hematoporphyrin IX], in the test on E. coli, the “bactericidal activity (in words)” value is recorded as “negligible bactericidal activity”.

As for “chick ovalbumin: chick-egg ovalbumin from Sigma”, the “ability to reduce ^1O2 / generate H2O2 (in words)” value in test [2] is recorded as “one of the most efficient proteins at reducing ^1O2”.

For `O=C1/C(=C2\Nc3ccc(S(=O)(=O)O)cc3C2=O)Nc2ccc(S(=O)(=O)O)cc21` [indigo carmine 1, indigo carmine], in the test with human neutrophils (PMNs), the “isatin sulfonic acid 2 formed” value turned out to be 25.1 ± 0.3 µM.

B1: RNase A: ribonuclease from Amersham Pharmacia (protein, UniProt P61823 27-150, looked up)
Ribonuclease pancreatic: KETAAAKFERQHMDSSTSAASSSNYCNQMMKSRNLTKDRCKPVNTFVHESLADVQAVCSQKNVACKNGQTNCYQSYSTMSITDCRETGSSKYPNCAYKTTQANKHIIVACEGNPYVPVHFDASV
Take B1: the “ability to reduce ^1O2 / generate H2O2 (in words)” value in test [2] is on record as “do not reduce ^1O2”.

Values taken from patent publication US20040157280A1, “Antibody mediated ozone generation” (priority 2001, published 2004).
